From ChEMBL document CHEMBL1201862, “PubChem BioAssay data set” (2004)
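Briefly, cells in 96-well plates were exposed to five compound concentrations for 48 h, and endpoints were estimated by linear interpolation. Here, GI50 denotes the concentration required for 50% inhibition of growth.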 Active and inactive are the calls of the source. Rule as the data show it: active = GI50 up to about 1.1 µM and inactive = higher.

Tests used:
Assay in all cases: NCI-60 cell line screen, 48 h
786-0 = tested on: 786-0
UACC-62 = tested on: UACC-62
OVCAR-3 = tested on: OVCAR-3
M14 = tested on: M14
Hs-578T = tested on: Hs-578T
OVCAR-5 = tested on: OVCAR-5
NCI-H226 = tested on: NCI-H226
UACC-257 = tested on: UACC-257
Malme-3M = tested on: Malme-3M
EKVX = tested on: EKVX
LOX IMVI = tested on: LOX IMVI
SK-MEL-5 = tested on: SK-MEL-5
IGROV-1 = tested on: IGROV-1
OVCAR-4 = tested on: OVCAR-4
CAKI-1 = tested on: CAKI-1
HOP-62 = tested on: HOP-62
HCT-15 = tested on: HCT-15
NCI-H522 = tested on: NCI-H522
SF-295 = tested on: SF-295
MDA-N = tested on: MDA-N

| Structure (SMILES) | GI50 (786-0) | GI50 (UACC-62) | GI50 (OVCAR-3) | GI50 (M14) | GI50 (Hs-578T) | GI50 (OVCAR-5) | GI50 (NCI-H226) | GI50 (UACC-257) | GI50 (Malme-3M) | GI50 (EKVX) | GI50 (LOX IMVI) | GI50 (SK-MEL-5) | GI50 (IGROV-1) | GI50 (OVCAR-4) | GI50 (CAKI-1) | GI50 (HOP-62) | GI50 (HCT-15) | GI50 (NCI-H522) | GI50 (SF-295) | GI50 (MDA-N) |
| --- | --- | --- | --- | --- | --- | --- | --- | --- | --- | --- | --- | --- | --- | --- | --- | --- | --- | --- | --- | --- |
| CC1=C(C(=O)Nc2ccc(Cl)c(C(=O)OC(C)C)c2)SCCO1 | > 100 µM (inactive) | 67.6 µM (inactive) | 86.1 µM (inactive) | > 100 µM (inactive) | 17.7 µM (inactive) | 47.9 µM (inactive) | 75.3 µM (inactive) | 62.1 µM (inactive) | 47.3 µM (inactive) | 71.4 µM (inactive) | 51.6 µM (inactive) | 50.1 µM (inactive) | 72.4 µM (inactive) | 56.8 µM (inactive) | > 100 µM (inactive) | > 91.4 µM (inactive) | 69 µM | 36.4 µM (inactive) | 54.7 µM (inactive) | – |
| Cc1oc2nc(N(C)C)n3c(C)nnc3c2c1C | > 100 µM (inactive) | > 100 µM (inactive) | – | > 100 µM (inactive) | > 100 µM (inactive) | > 100 µM (inactive) | > 100 µM (inactive) | > 100 µM (inactive) | – | > 100 µM (inactive) | > 100 µM (inactive) | > 100 µM (inactive) | > 100 µM (inactive) | > 100 µM (inactive) | > 100 µM (inactive) | – | > 100 µM | > 100 µM (inactive) | > 100 µM (inactive) | – |
| CN1CCN(Cn2nc(COc3ccc(Cl)cc3)n(/N=C/c3ccc(-c4ccc(Cl)cc4Cl)o3)c2=S)CC1 | 5.12 µM (inactive) | – | 14.1 µM (inactive) | – | 3.72 µM (inactive) | 6.46 µM (inactive) | 19.6 µM (inactive) | 17.6 µM (inactive) | – | 14.5 µM (inactive) | 5.57 µM (inactive) | 14.8 µM (inactive) | 10.6 µM (inactive) | 3.05 µM (inactive) | 14.2 µM (inactive) | 5 µM (inactive) | 18.6 µM | 3.72 µM (inactive) | 13.4 µM (inactive) | 4.02 µM (inactive) |
| C=C1CN(Cc2ccccc2)[C@@H]2CCCCC[C@H](C#N)[C@H]12 | > 100 µM (inactive) | > 100 µM (inactive) | > 93.1 µM (inactive) | > 100 µM (inactive) | – | > 100 µM (inactive) | > 69.3 µM (inactive) | > 100 µM (inactive) | > 100 µM (inactive) | > 100 µM (inactive) | 95.9 µM (inactive) | > 100 µM (inactive) | > 100 µM (inactive) | > 100 µM (inactive) | > 100 µM (inactive) | > 69.2 µM (inactive) | > 100 µM | 65.8 µM (inactive) | > 21.2 µM (inactive) | > 100 µM (inactive) |
| CSc1ncc2c(n1)-c1ccccc1OC2N1CCCC1 (stereo not given) | > 100 µM (inactive) | 26.4 µM (inactive) | 47.4 µM (inactive) | > 100 µM (inactive) | 39.1 µM (inactive) | > 100 µM (inactive) | 31 µM (inactive) | > 100 µM (inactive) | – | 42.1 µM (inactive) | > 100 µM (inactive) | > 100 µM (inactive) | 47.8 µM (inactive) | 21 µM (inactive) | 31 µM (inactive) | – | 49.9 µM | 36.6 µM (inactive) | > 100 µM (inactive) | > 100 µM (inactive) |
| CC1=CC(C2/C(=N/O)C=C(C)CC2(C)C)C(O)C(C)(C)C1 (stereo not given) | 17.4 µM (inactive) | 15.2 µM (inactive) | 11.1 µM (inactive) | 15.1 µM (inactive) | 31.8 µM (inactive) | 19.1 µM (inactive) | 15.8 µM (inactive) | 15.5 µM (inactive) | – | 16.5 µM (inactive) | 16.8 µM (inactive) | 15.1 µM (inactive) | 17.3 µM (inactive) | 15 µM (inactive) | 15 µM (inactive) | 14.9 µM (inactive) | 16.3 µM | – | 18.6 µM (inactive) | 17 µM (inactive) |
| O=c1[nH][nH]c(=O)c2c1ccc1oc3ccccc3c12 | > 100 µM (inactive) | > 100 µM (inactive) | > 100 µM (inactive) | > 100 µM (inactive) | > 100 µM (inactive) | > 100 µM (inactive) | > 100 µM (inactive) | > 100 µM (inactive) | > 100 µM (inactive) | 56.2 µM (inactive) | – | > 100 µM (inactive) | > 100 µM (inactive) | > 100 µM (inactive) | 45.8 µM (inactive) | > 100 µM (inactive) | – | > 100 µM (inactive) | > 100 µM (inactive) | > 100 µM (inactive) |
| Cc1nc(-c2ccc([N+](=O)[O-])cc2)cn2c1nc1ccccc12 | 71 µM (inactive) | 15.9 µM (inactive) | > 100 µM (inactive) | 70.3 µM (inactive) | > 100 µM (inactive) | > 100 µM (inactive) | > 100 µM (inactive) | > 100 µM (inactive) | > 100 µM (inactive) | > 100 µM (inactive) | > 100 µM (inactive) | – | > 100 µM (inactive) | > 100 µM (inactive) | > 100 µM (inactive) | 36.5 µM (inactive) | > 100 µM | – | 76.9 µM (inactive) | > 100 µM (inactive) |
| Brc1c(C#CCC(c2ccccc2)(c2ccccc2)c2ccccc2)ccc(C#CCC(c2ccccc2)(c2ccccc2)c2ccccc2)c1Br | > 100 µM (inactive) | > 100 µM (inactive) | > 100 µM (inactive) | > 100 µM (inactive) | > 100 µM (inactive) | > 100 µM (inactive) | > 100 µM (inactive) | > 100 µM (inactive) | > 100 µM (inactive) | > 100 µM (inactive) | – | > 100 µM (inactive) | > 100 µM (inactive) | > 100 µM (inactive) | > 100 µM (inactive) | – | > 100 µM | > 100 µM (inactive) | > 100 µM (inactive) | > 100 µM (inactive) |
| CC1C2CC(C(S(=O)(=O)O)C2=O)C1(C)C (stereo not given) | > 100 µM (inactive) | > 100 µM (inactive) | > 100 µM (inactive) | > 100 µM (inactive) | > 100 µM (inactive) | > 100 µM (inactive) | > 100 µM (inactive) | > 100 µM (inactive) | > 100 µM (inactive) | > 100 µM (inactive) | – | – | > 100 µM (inactive) | > 100 µM (inactive) | – | > 100 µM (inactive) | – | > 100 µM (inactive) | > 100 µM (inactive) | > 100 µM (inactive) |
| O=C(NC(CO)CO)c1ccc2cc(C(=O)N3CC(CCl)c4ccc([N+](=O)[O-])cc43)[nH]c2c1 (stereo not given) | > 100 µM (inactive) | > 100 µM (inactive) | > 100 µM (inactive) | > 100 µM (inactive) | > 100 µM (inactive) | > 100 µM (inactive) | > 100 µM (inactive) | > 100 µM (inactive) | > 100 µM (inactive) | > 100 µM (inactive) | > 100 µM (inactive) | > 100 µM (inactive) | > 100 µM (inactive) | > 100 µM (inactive) | > 100 µM (inactive) | > 100 µM (inactive) | > 100 µM | – | > 100 µM (inactive) | > 100 µM (inactive) |
| COc1cc(COC(=O)N2CCCCC2C(=O)O)c([N+](=O)[O-])cc1OC (stereo not given) | > 100 µM (inactive) | > 100 µM (inactive) | > 100 µM (inactive) | > 100 µM (inactive) | > 100 µM (inactive) | > 100 µM (inactive) | > 100 µM (inactive) | > 100 µM (inactive) | > 100 µM (inactive) | > 100 µM (inactive) | – | > 100 µM (inactive) | > 100 µM (inactive) | – | – | > 100 µM (inactive) | > 100 µM | – | > 100 µM (inactive) | > 100 µM (inactive) |
| O=C1/C(=C/c2ccco2)N=C(c2ccccc2)N1c1cc2cc(Sc3ccccc3)ccc2[nH]1 | > 25 µM (inactive) | 21.8 µM (inactive) | – | 21.6 µM (inactive) | 15.3 µM (inactive) | 21.6 µM (inactive) | – | – | > 25 µM (inactive) | 15.5 µM (inactive) | 12.3 µM (inactive) | – | > 25 µM (inactive) | > 25 µM (inactive) | 9.46 µM (inactive) | – | > 25 µM | 11.6 µM (inactive) | – | 7.21 µM (inactive) |
| Nc1ccc(-c2nc3ccc(F)cc3s2)cc1I | 40.4 µM (inactive) | > 79.6 µM (inactive) | – | > 100 µM (inactive) | 22.2 µM (inactive) | 0.0515 µM (active) | – | > 100 µM (inactive) | > 100 µM (inactive) | > 51.6 µM (inactive) | > 100 µM (inactive) | > 74.6 µM (inactive) | < 0.01 µM (active) | – | > 100 µM (inactive) | 47.1 µM (inactive) | > 100 µM | > 63.1 µM (inactive) | > 71 µM (inactive) | > 100 µM (inactive) |
| c1ccc2c(c1)Sc1ccccc1N2CC1CN2CCC1CC2 (stereo not given) [MEQUITAZINE] | 6.24 µM (inactive) | 3.13 µM (inactive) | 3.97 µM (inactive) | 1.87 µM (inactive) | 8.2 µM (inactive) | 11.7 µM (inactive) | 14.5 µM (inactive) | 1.88 µM (inactive) | 1.94 µM (inactive) | 11.4 µM (inactive) | 3.08 µM (inactive) | 3.2 µM (inactive) | 11.2 µM (inactive) | 6.5 µM (inactive) | 8.26 µM (inactive) | 13.4 µM (inactive) | 7.18 µM | 4.82 µM (inactive) | 15.7 µM (inactive) | – |
| C=C[C@H]1CN2CCc3c([nH]c4c([C@H]5CCCN5C)c(O)ccc34)[C@@H]2C[C@@H]1C[C@H]1c2[nH]c3ccccc3c2CCN1C [STRYCHNOPENTAMINE] | 1.43 µM (inactive) | 1.77 µM (inactive) | 1.58 µM (inactive) | 1.47 µM (inactive) | 1.78 µM (inactive) | 1.72 µM (inactive) | – | 1.83 µM (inactive) | 1.76 µM (inactive) | 1.75 µM (inactive) | 1.15 µM (inactive) | – | 1.59 µM (inactive) | 1.74 µM (inactive) | 1.72 µM (inactive) | 1.55 µM (inactive) | 0.899 µM | 1.79 µM (inactive) | 1.73 µM (inactive) | 1.35 µM (inactive) |
